Read-outs that look alike come from different tables or passages of the source.
Experiments:
[1] = target: T1, Avi-KRAS G12C (1-169) GppNHp/RAF1 RBD-3×FLAG (52-151) (Homo sapiens, UniProt P01116, G12C); assay: Raf1 RBD-KRAS G12C-GppNHp disruption (protein:protein interaction HTRF assay); type: biochemical
T1 construct: Avi-KRAS G12C (1-169) GppNHp/RAF1 RBD-3×FLAG (52-151)
Summary of the method: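 HTRF measuring disruption of 50 nM Avi-KRAS G12C (1-169) loaded with GppNHp binding RAF1 RBD-3×FLAG (52-151), in pH 7.5 Tris buffer with 5 mM MgCl2, 0.1% BSA, 10% DMSO. KRAS preincubated with compound 1 h, then RBD 1 h, then detection reagents 1 h, all at room temperature. Compound titration 30-0.02 μM; activity expressed as percent of DMSO control.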

[2] = target: T2, GTP-loaded KRAS4b (amino acids 1-169) G12C/C118S protein (Homo sapiens, UniProt P01116, C118S/G12C); assay: Covalent cysteine 12 modification by MALDI-TOF MS, GTP-loaded KRAS G12C; type: binding; conditions: 15 minutes reaction time point
T2 construct: KRAS4b (amino acids 1-169) G12C/C118S protein; made in house
Description: Reaction: 1 μM of GppNHp-, GTP-, or GDP-loaded KRAS4b (amino acids 1-169) G12C/C118S protein (produced in-house by Protein Expression Laboratory, FNLCR/Leidos Biomed) in 20 mM 4-(2-hydroxyethyl)-1-piperazineethanesulfonic acid (HEPES) buffer containing 150 mM NaCl, 1 mM MgCl2, pH 7.3 was prepared freshly before assay. Ten-μL aliquots of protein were dispensed onto low volume 384-well plate, then 375 nL DMSO, and 25 nL of tested compounds from 5 mM DMSO stocks were added to appropriate wells using ECHO 555 acoustic liquid handler (Labcyte Inc.). For each reaction/assay, three blanks were prepared by mixing 10 μL of protein solution with 400 nL DMSO. The contents of the wells were carefully mixed by aspiration, and then each plate was sealed with an adhesive cover, centrifuged at 2000 g for 1 minute, and kept in the dark at room temperature until 5 min, 15 min, 30 min, or 2 h collections.
Target pretreatment: Before each assay MALDI target (Bruker MPT 384 ground steel BC) was pre-treated by pipetting on each spot 0.75 μL of saturated sinapinic acid in acetonitrile (ACN).
Sample preparation: At collection time point, 2 μL of reaction mixtures were pipetted out into 20 μL MALDI matrix solution (saturated solution of sinapinic acid in 1:1 ACN:water solution containing 0.75% trifluoroacetic acid (TFA)) deposited on 384 well polypropylene plate. Resulting solution was mixed by aspiration, centrifuged at 2000 g for 1 minute, then 1 μL aliquots were dispensed on pre-treated MALDI target using Beckman Coulter Biomek FXP 96/384-Span-8 Laboratory Automation Workstation. Finally, the MALDI target was dried under mild vacuum to produce spots with fine crystalline structure.
Measurements: MALDI-TOF measurements were performed on a Bruker Daltonics rapiflex Tissuetyper TOF-TOF mass spectrometer using linear mode and mass range from 18.6 to 21.6 kDa. Detector gain was set to 3.3× (483 V), sample rate to 5 GS/s, real time smoothing to medium (175 MHz), laser smart beam pattern was set to: “MS Thin Layer M5”, and the laser frequency was 10000 Hz. Spectra were automatically collected using custom Auto Xecute method. Laser power was auto adjusted using fuzzy control. The peak selection range was set to be between 19000 and 21500 Da. Peak evaluation uses half width parameter set to be smaller than 40 Da for processed spectrograms (centroid peak detection; smoothed by SavitzkyGolay algorithm using 7 m/z width and 2 cycles; baseline was subtracted using median algorithm with flatness 1 and median level 0.01). Fuzzy control used Proteins/Oligonucleotides protocol with minimum half width 1/10 times above threshold. Up to 40000 satisfactory shots were collected in 10000 shot steps. Dynamic termination was implemented to finish data collection when peak signal/noise ratio was reaching value of 50.
Spectra processing: Spectra were smoothed by SavitzkyGolay algorithm using 7 m/z width and three cycles. Centroid peak detection algorithm was used with signal to noise threshold set to 6, relative intensity threshold 4%, peak width 10 m/z and median baseline subtraction using flatness of 1 and median level of 0.01. Peak intensity and area under the peak were evaluated and recorded for all peaks between 19,300 Da and 21,550 Da.
Calculation of percent modification: Percent modification was calculated as a ratio of peak height for protein modified by compound to sum of peak height of remaining protein plus peak height for protein modified by compound. If multiple modifications were observed each was calculated as a ratio of peak height for given modification versus sum of peak heights for all observed protein species. Data reported in Table 5 are from 15 minutes reaction time point.

pERK in NCI-H358 cells = assay: Cell-based pERK HTRF assay; conditions: 30 min incubation, read-out: pERK in NCI-H358 cell inhibition IC50
Summary of the method: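 Cells seeded at 4×10^4/well in RPMI with 10% FBS, then next day treated for 30 min with a 9-point, 3-fold series from 75 μM top concentration at 0.25% DMSO. Lysates were read for pERK by HTRF (d2/Eu cryptate antibodies) after 4–24 h at room temperature, emission at 615 nm.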

[3] = target: T3, GDP-loaded KRAS4b (amino acids 1-169) G12C/C118S protein (Homo sapiens, UniProt P01116, C118S/G12C); assay: Covalent cysteine 12 modification by MALDI-TOF MS, GDP-loaded KRAS G12C; type: binding; conditions: 15 minutes reaction time point
T3 construct: KRAS4b (amino acids 1-169) G12C/C118S protein; made in house
Summary of the method: (§1)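 KRAS4b 1-169 G12C/C118S loaded with GDP, GppNHp or GTP was used at 1 μM in 20 mM HEPES, 150 mM NaCl, 1 mM MgCl2, pH 7.3, and incubated with compound (5 mM DMSO stock) at room temperature in the dark. % modification at 15 min is adduct peak height over total protein peak heights by linear-mode MALDI-TOF.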

[4] = target: T4, GppNHp-loaded KRAS4b (amino acids 1-169) G12C/C118S protein (Homo sapiens, UniProt P01116, C118S/G12C); assay: Covalent cysteine 12 modification by MALDI-TOF MS, GppNHp-loaded KRAS G12C; type: binding; conditions: 15 minutes reaction time point
T4 construct: KRAS4b (amino acids 1-169) G12C/C118S protein; made in house
Summary of the method: as §1

SMILES | IC50 [1] [nM] | GTP-KRAS G12C percent of modification [2] | IC50 (pERK in NCI-H358 cells) [nM] | GDP-KRAS G12C percent of modification [3] | GppNHp-KRAS G12C percent of modification [4] | IC50 (pERK in NCI-H358 cells; Homo sapiens, NCI-H358, 0.5 h) [nM]
C=CC(=O)N1CC[C@@H](Oc2nc(OC[C@@]34CCCN3C[C@H](F)C4)nc3c(F)c(-c4ccc(F)c5sc(N)c(C#N)c45)c(C(F)(F)F)cc23)[C@H]1COC (atropisomer, axis not shown) [Compound 96] | 5000 to 20000 | D (percent of modification <10%) | 100 to 1000 | D (percent of modification <10%) | D (percent of modification <10%) | –
C=CC(=O)N1CC[C@@H](Oc2nc(OC[C@@]34CCCN3C[C@H](F)C4)nc3c(F)c(-c4ccc(F)c5sc(N)c(C#N)c45)c(C(F)(F)F)cc23)[C@H]1C (single isomer, unassigned) [Compound 63] | ≤ 500 | A (percent of modification ≥70%) | ≤ 100 | A (percent of modification ≥70%) | A (percent of modification ≥70%) | –
C=CC(=O)N1CC[C@@H](Oc2nc(OC[C@@]34CCCN3C[C@H](F)C4)nc3c(F)c(-c4ccc(F)c5sc(N)c(C#N)c45)c(C(F)(F)F)cc23)[C@H]1C (single isomer, unassigned) [Compound 64] | > 20000 | D (percent of modification <10%) | > 1000 | D (percent of modification <10%) | D (percent of modification <10%) | –
C=CC(=O)N1CCC(Oc2nc(OC[C@@]34CCCN3C[C@H](F)C4)nc3c(F)c(-c4ccc(F)c5sc(N)nc45)c(C(F)(F)F)cc23)C1(C)C (stereo partly drawn) [Compound 45] | ≤ 500 | C (10%≤modification <50%) | – | B (50≤percent of modification <70%) | C (10%≤modification <50%) | ≤ 100
C=CC(=O)N1CC[C@@H](Oc2nc(OC[C@@]34CCCN3C[C@H](F)C4)nc3c(F)c(-c4ccc(F)c5sc(N)c(C#N)c45)c(C(F)(F)F)cc23)C1 [Compound 46] | ≤ 500 | B (50≤percent of modification <70%) | – | B (50≤percent of modification <70%) | B (50≤percent of modification <70%) | ≤ 100
C=CC(=O)N1C[C@H](Oc2nc(OC[C@@]34CCCN3C[C@H](F)C4)nc3cc(-c4ccc(F)c5sc(N)c(C#N)c45)c(C(F)(F)F)cc23)[C@@H](F)C1 [Compound 49] | ≤ 500 | C (10%≤modification <50%) | – | C (10%≤modification <50%) | B (50≤percent of modification <70%) | ≤ 100
C=CC(=O)N1C[C@@H](F)[C@@H](Oc2nc(OC[C@@]34CCCN3C[C@H](F)C4)nc3cc(-c4ccc(F)c5sc(N)c(C#N)c45)c(C(F)(F)F)cc23)C1 [Compound 50] | ≤ 500 | B (50≤percent of modification <70%) | – | B (50≤percent of modification <70%) | A (percent of modification ≥70%) | ≤ 100
C=CC(=O)N1CC[C@@H](Oc2nc(OC[C@@]34CCCN3C[C@H](F)C4)nc3c(F)c(-c4ccc(F)c5sc(N)c(C#N)c45)ccc23)C1 [Compound 51] | ≤ 500 | A (percent of modification ≥70%) | – | A (percent of modification ≥70%) | A (percent of modification ≥70%) | ≤ 100
C=CC(=O)N1CC[C@@H](Oc2nc(OC[C@@]34CCCN3C[C@H](F)C4)nc3c(F)c(-c4ccc(F)c5sc(N)c(C#N)c45)c(F)cc23)C1 [Compound 52] | 5000 to 20000 | D (percent of modification <10%) | – | D (percent of modification <10%) | D (percent of modification <10%) | > 1000
C=CC(=O)N1CC[C@@H](Oc2nc(OC[C@@]34CCCN3C[C@H](F)C4)nc3cc(-c4ccc(F)c5sc(N)c(C#N)c45)c(C(F)(F)F)nc23)C1 [Compound 55, 4-(4-(((R)-1-acryloylpyrrolidin-3-yl)oxy)-2-(((2R,7aS)-2-fluorotetrahydro-1H-pyrrolizin-7a (5H)-yl)methoxy)-6-(trifluoromethyl)pyrido[3,2-d]pyrimidin-7-yl)-2-amino-7-fluorobenzo[b]thiophene-3-carbonitrile] | ≤ 500 | D (percent of modification <10%) | – | C (10%≤modification <50%) | C (10%≤modification <50%) | ≤ 100
C=CC(=O)N1CC[C@@H](Oc2nc(OC[C@@]34CCCN3C[C@H](F)C4)nc3c(F)c(-c4ccc(F)c5sc(N)c(C#N)c45)ncc23)C1 [Compound 56] | ≤ 500 | B (50≤percent of modification <70%) | – | A (percent of modification ≥70%) | A (percent of modification ≥70%) | ≤ 100
C=CC(=O)N1CC[C@@H](Oc2nc(OC[C@@]34CCCN3C[C@H](F)C4)nc3c(F)c(-c4c(F)cc(F)c5sc(N)nc45)ncc23)C1 [Compound 57] | 500 to 5000 | D (percent of modification <10%) | – | A (percent of modification ≥70%) | C (10%≤modification <50%) | 100 to 1000

Reference: patent US20250188085A1, “COMPOSITIONS AND METHODS FOR INHIBITION OF RAS” (THERAS, INC., priority 2022, published 2025)
